The results in this text go back to patent publication US9487553B2, “Boranophosphate analogues of cyclic nucleotides” (BIOLOG LIFE SCIENCE INSTITUTE FORSCHUNGSLABOR UND …, priority 2011, dated 2016).

In one series the target is T1, PDE IV (A4B) (Homo sapiens, UniProt P27815).
T1 construct: Houslay lab, Glasgow/Scotland (obtained from another laboratory)
In words: Stability against PDE IV, HPLC. The series is classed as in vitro ADME. The conditions noted are these: several days. The method, then:
Next, stability of the disclosed boranophosphates against PDE IV (A4B, Houslay lab, Glasgow/Scotland) was tested in similar experiments as described above.

In series [1] the target is protein kinase A type I alpha holoenzyme (Homo sapiens, UniProt P10644). In words: Standard photometric (Cook) assay with protein kinase A type I alpha holoenzyme. The series is classed as biochemical. The conditions noted are these: holoenzyme RIα. The source says: In a first experiment, the biological activity of the Rp- and Sp-isomer of 8-bromoadenosine-3′,5′-cyclic boranophosphate (examples 1 and 2) has been tested with the holoenzyme of protein kinase A type I alpha (FIGS. 3 and 4) using a standard photometric assay (Cook, P. F.; Neville, M. E., Jr.; Vrana, K. E.; Hartl, F. T. and Roskoski, R., Jr., Biochemistry 21, 5794-5799 (1982)).
Chain of protein kinase A type I alpha holoenzyme (P10644 whole entry): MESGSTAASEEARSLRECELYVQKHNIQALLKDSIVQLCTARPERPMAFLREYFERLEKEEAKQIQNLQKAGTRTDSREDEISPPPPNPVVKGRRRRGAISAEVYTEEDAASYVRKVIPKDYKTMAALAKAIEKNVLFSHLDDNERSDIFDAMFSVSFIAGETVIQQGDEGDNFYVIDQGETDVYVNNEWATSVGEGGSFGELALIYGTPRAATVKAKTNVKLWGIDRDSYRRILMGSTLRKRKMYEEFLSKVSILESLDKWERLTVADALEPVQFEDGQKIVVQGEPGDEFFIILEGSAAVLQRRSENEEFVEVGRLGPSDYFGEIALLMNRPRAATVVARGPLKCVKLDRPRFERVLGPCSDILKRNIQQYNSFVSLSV
As a control, two boranophosphate analogues with a 2′-O-methyl modification (Rp-2′-O-Me-cAMPB and Sp-2′-O-Me-cAMPB, examples 7 & 8) have been tested by the same type of assay with protein kinase A type I alpha as well.
FIG. 5 depicts the activity overview of four different cyclic boranophosphate analogues with protein kinase A type I alpha holoenzyme. 9108: Sp-2′-O-Me-cAMPB; 9109: Rp-2′-O-Me-cAMPB; 9110: Sp-8-Br-cAMPB; 9111: Rp-8-Br-cAMPB; controls: B 001: Rp-8-Br-cAMPS. Control: cAMP. “Cook Assay” with Holoenzyme RIα.

Series [2] concerns PDE type I from bovine brain. Put plainly: Resistance towards phosphodiesterase: incubation with PDE type I from bovine brain, HPLC. The conditions noted are these: PDE type I from bovine brain, 37° C., up to 8 days. The method, then: Activity of the enzyme was checked by hydrolysis of cyclic AMP. Stability was monitored by HPLC (RP-18, 11 Vol.-% propanol-2, 20 mM TEAF buffer, pH 6.8, 1 ml/min., UV 264 nm).

A further series concerns PDE 1 from bovine heart. In words: Resistance towards phosphodiesterase: incubation with PDE 1 from bovine heart, HPLC. The conditions noted are these: PDE 1 from bovine heart, up to 8 days of incubation. The method, then:
(§1) For this purpose 0.1 μmol of Rp-8-bromoadenosine-3′,5′-cyclic boranophosphate (example 1) and Sp-8-bromoadenosine-3′,5′-cyclic boranophosphate […] dissolved in TRIS buffer pH 7.2 containing calcium chloride and calmodulin and incubated with PDE type I from bovine brain (Sigma-Aldrich) at 37° C. Activity of the enzyme was checked by hydrolysis of cyclic AMP. Stability was monitored by HPLC (RP-18, 11 Vol.-% propanol-2, 20 mM TEAF buffer, pH 6.8, 1 ml/min., UV 264 nm). […] This strategy of testing PDE performance was applied accordingly in degradation examples 10 and 11.
(§2) Thus, Rp-8-Br-cAMPB (example 1) and Sp-8-Br-cAMPS (Biolog, Bremen/Germany) were incubated with PDE 1 from bovine heart (Sigma-Aldrich) and monitored by HPLC as described above.
(§3) Rp-2′-O-Me-cAMPB (example 7) and Sp-2′-O-Me-cAMPS (Biolog, Bremen/Germany).

A short description of series [3]: Degradation Example 5: oxidation with hydrogen peroxide, monitored by HPLC. The format is physicochemical. The settings on record: after 1 hour at RT. The method, then: Thus, the cyclic boranophosphate 6-chloropurine-1-β-D-ribofuranoside-3′,5′-cyclic boranophosphate, Rp-isomer (Rp-6-Cl-cPuMPB, example 42) together with the corresponding phosphorothioate 6-chloropurine-1-β-D-ribofuranoside-3′,5′-cyclic phosphorothioate, Sp-isomer (Sp-6-Cl-cPuMPS, Biolog) as a control were treated repeatedly with μl doses of 30% aqueous hydrogen peroxide (Merck). During one hour, oxidative degradation was monitored by HPLC (RP-18, 15 Vol.-% acetonitrile, 20 mM triethylammonium formate buffer, pH 6.5, 2 ml/min., UV 263 nm) and corresponding peak areas were recorded, integrated and compared (Tab. 3).

Series [4] is described as follows: Degradation Example 4: oxidation with hydrogen peroxide, monitored by HPLC. The format is physicochemical. The settings on record: after 3 hours at RT. The method, then:
As a control, the corresponding cyclic nucleotide with phosphorothioate modification (Rp-8-BT-2′-O-Me-cAMPS, Biolog) had been added. The oxidation process was monitored by reversed phase HPLC (RP-18, 30 Vol.-% acetonitrile, 20 mM triethylammonium formate buffer, pH 8.3, 2 ml/min, UV 282 nm). The areas of both peaks were recorded, integrated and compared (Tab. 2).

The nature of series [5]: Degradation Example 6: oxidation with hydrogen peroxide, monitored by HPLC. The series is classed as physicochemical. The settings on record: after 1 hour at RT. The method, then: Thus, 0.1 μmol of the cyclic boranophosphate 2-chloroadenosine-3′,5′-cyclic boranophosphate, Sp-isomer (Sp-2-Cl-cAMPB, example 71) and 0.1 μmol of the corresponding phosphorothioate 2-chloroadenosine-3′,5′-cyclic phosphorothioate, Rp-isomer (Rp-2-Cl-cAMPS, Biolog) as a control, were each dissolved in 100 μl of water, combined and treated with 10 μl of 30% aqueous hydrogen peroxide (Merck), and another 10 μl after one hour. During 2.5 hours, oxidative degradation was monitored by HPLC (RP-18, 15 Vol.-% acetonitrile, 20 mM triethylammonium formate buffer, pH 6.5, 1.5 ml/min., UV 262 nm). Corresponding peak areas were recorded, integrated and compared (Tab. 5).

Series [6] is described as follows: Degradation Example 8: oxidation with hydrogen peroxide, monitored by HPLC. The series is classed as physicochemical. The conditions noted are these: after 1 hour at RT. The method, then: Finally, with the Sp-isomer of 8-bromoguanosine-3′,5′-cyclic boranophosphate (Sp-8-Br-cGMPB, example 6) also the oxidative stability of a cyclic boranophosphate with a modified guanine nucleobase was investigated and again compared to the corresponding phosphorothioate Rp-8-bromoguanosine-3′,5′-cyclic phosphorothioate (Rp-8-Br-cGMPS, Biolog).
Both compounds were treated together with two 10 μl doses of 30% aqueous hydrogen peroxide (Merck). During more than four hours, oxidative degradation was monitored by HPLC (RP-18, 15 Vol.-% acetonitrile, 20 mM triethylammonium formate buffer, pH 6.5, 1.5 ml/min., UV 263 nm) and corresponding peak areas were recorded and compared (Tab. 7).

Series [7] addresses T2, protein kinase G type I α, activated by cGMP (Homo sapiens, UniProt Q13976).
T2 sequence (Q13976 1-671): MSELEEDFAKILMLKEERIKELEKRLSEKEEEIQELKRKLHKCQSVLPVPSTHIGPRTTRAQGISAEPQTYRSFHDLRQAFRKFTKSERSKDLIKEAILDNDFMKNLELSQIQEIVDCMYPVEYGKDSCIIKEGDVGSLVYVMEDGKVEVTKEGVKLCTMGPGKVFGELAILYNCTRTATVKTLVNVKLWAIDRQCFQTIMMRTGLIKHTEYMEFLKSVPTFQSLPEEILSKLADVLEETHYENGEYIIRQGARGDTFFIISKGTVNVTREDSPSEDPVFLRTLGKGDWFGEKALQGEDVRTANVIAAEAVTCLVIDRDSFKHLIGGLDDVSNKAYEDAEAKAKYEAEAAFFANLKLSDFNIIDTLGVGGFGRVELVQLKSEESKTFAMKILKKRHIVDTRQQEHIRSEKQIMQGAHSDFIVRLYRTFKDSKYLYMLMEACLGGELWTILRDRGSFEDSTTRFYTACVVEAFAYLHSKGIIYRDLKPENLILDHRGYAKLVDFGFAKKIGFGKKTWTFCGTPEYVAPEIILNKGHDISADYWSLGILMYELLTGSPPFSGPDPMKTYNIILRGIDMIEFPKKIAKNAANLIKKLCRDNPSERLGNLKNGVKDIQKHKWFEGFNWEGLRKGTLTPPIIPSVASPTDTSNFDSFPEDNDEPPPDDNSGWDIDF
In words: Suppression of cGMP-stimulated protein kinase G type I alpha activity. The format is biochemical. The settings on record: 10 nM, 100 nM and 1 μM; cGMP 200 nM.

In series [8] the target is protein kinase A type II alpha holoenzyme (Homo sapiens, UniProt P13861). In words: Photometric (Cook) assay with protein kinase A type II alpha holoenzyme. The series is classed as biochemical. The conditions noted are these: activation of protein kinase A type II; data not shown. The source says: In another similar experiment the properties of Rp- and Sp-8-Br-cAMPB towards protein kinase A type II a were investigated in the photometric assay (Cook, P. F., Neville, M. E., Jr., Vrana, K. E., Hartl, F. T. and Roskoski, R., Jr., Biochemistry 21, 5794-5799 (1982))
Chain of protein kinase A type II alpha holoenzyme (P13861 whole entry): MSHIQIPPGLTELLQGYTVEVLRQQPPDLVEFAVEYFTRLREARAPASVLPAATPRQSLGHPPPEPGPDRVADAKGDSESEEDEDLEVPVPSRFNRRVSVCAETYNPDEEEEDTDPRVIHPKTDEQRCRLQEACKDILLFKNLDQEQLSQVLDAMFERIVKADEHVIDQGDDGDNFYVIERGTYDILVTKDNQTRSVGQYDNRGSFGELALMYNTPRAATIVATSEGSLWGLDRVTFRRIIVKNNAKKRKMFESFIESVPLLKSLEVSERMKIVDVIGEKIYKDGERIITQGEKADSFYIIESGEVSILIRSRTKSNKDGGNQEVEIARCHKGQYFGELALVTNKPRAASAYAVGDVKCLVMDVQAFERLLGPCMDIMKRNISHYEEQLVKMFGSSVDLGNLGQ

The subject of another series is PDE 1. Put plainly: Resistance towards phosphodiesterase: incubation with PDE 1 from bovine heart, HPLC. The settings on record: bovine, pH 7.2. The method, then: as §1, §2, §3

pEC50: −log10 of the molar value.

T1 sequence (P27815 whole entry): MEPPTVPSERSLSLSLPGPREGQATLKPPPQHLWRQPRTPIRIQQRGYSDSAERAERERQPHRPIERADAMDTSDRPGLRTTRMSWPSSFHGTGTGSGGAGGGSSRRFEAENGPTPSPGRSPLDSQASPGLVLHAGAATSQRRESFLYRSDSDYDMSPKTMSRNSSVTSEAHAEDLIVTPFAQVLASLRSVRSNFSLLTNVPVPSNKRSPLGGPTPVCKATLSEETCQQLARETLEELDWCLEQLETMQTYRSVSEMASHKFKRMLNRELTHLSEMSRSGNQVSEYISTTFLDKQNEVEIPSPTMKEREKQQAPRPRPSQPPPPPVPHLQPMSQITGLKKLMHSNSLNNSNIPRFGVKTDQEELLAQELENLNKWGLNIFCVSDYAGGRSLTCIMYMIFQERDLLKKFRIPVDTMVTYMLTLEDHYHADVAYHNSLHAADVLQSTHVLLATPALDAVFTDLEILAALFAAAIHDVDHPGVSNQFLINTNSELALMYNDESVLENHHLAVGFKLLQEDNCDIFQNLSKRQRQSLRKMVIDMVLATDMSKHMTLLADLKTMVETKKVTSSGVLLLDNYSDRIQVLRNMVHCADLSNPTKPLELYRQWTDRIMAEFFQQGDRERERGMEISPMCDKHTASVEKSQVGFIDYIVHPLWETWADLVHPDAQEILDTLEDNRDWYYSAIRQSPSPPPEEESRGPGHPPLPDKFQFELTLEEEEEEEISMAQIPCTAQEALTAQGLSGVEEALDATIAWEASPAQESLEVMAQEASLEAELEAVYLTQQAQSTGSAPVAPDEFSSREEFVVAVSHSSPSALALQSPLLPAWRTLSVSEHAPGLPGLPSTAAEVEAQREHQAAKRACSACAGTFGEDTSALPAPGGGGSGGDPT

With `B[PH]1(O)OC[C@H]2O[C@@H](n3cnc4c(N)ncnc43)C(OC)[C@@H]2O1` (stereo partly drawn) [Rp-2′-O-Me-cAMPB, 2′-O-Methyladenosine-3′,5′-cyclic boranophosphate, Rp-isomer], the “stability against PDE IV” value at PDE IV (A4B) is given as “completely stable”. Further, in [1], the “effect on protein kinase A type I alpha holoenzyme” value was “neither Rp- nor Sp-2′-O-Me-cAMPB did modulate the kinase in any way”. The “degradation by PDE” value (in series [2]; with PDE 1 from bovine heart) was “stable over the whole assay period” throughout.

Molecule `O[C@@H]1[C@@H]2OP(O)(=S)OC[C@H]2O[C@H]1n1cnc2c(Cl)ncnc21` (single isomer, unassigned) [Sp-6-Cl-cPuMPS, 6-chloropurine-1-β-D-ribofuranoside-3′,5′-cyclic phosphorothioate, Sp-isomer, reference compound] showed a degraded in series [3] of 37%.

As for “8-Benzylthio-2′-O-methyladenosine-3′,5′-cyclic boranophosphate, SP-isomer [Sp-8-BT-2′-O-Me-cAMPB]”, the “peak area, % of the original area” value in series [4] worked out at 73%.

For “2-Chloroadenosine-3′,5′-cyclic boranophosphate, Rp-isomer [Rp-2-Cl-cAMPB]”, the “peak area, % of the original area” value in series [5] turned out to be 90%.

Turning to “6-Chloropurine-1-β-D-ribofuranoside-3′,5′-cyclic boranophosphate, Rp-isomer [Rp-6-Cl-cPuMPB]”, in series [3], the “peak area, % of the original area” value came to 93%.

With `Nc1nc2c(nc(Br)n2[C@@H]2O[C@@H]3COP(O)(=S)O[C@H]3[C@H]2O)c(=O)[nH]1` (some centres unmarked) [Rp-8-Br-cGMPS, Rp-8-bromoguanosine-3′,5′-cyclic phosphorothioate, reference compound], the degraded in series [6] worked out at 15%.

On to `B[PH]1(O)OC[C@H]2O[C@@H](n3c(Br)nc4c(=O)[nH]c(N)nc43)C(O)[C@@H]2O1` (stereo partly drawn) [Sp-8-Br-cGMPB, 8-Bromoguanosine-3′,5′-cyclic boranophosphate, Sp-isomer], for which the “antagonism of protein kinase G” value in series [7] is on record as “showed antagonistic potential”. Also, the “peak area, % of the original area” value in series [6] is 65%.

As for `Nc1nc(Cl)nc2c1ncn2[C@@H]1O[C@@H]2COP(O)(=S)OC2[C@@H]1O` (single isomer, unassigned) [Rp-2-Cl-cAMPS, 2-chloroadenosine-3′,5′-cyclic phosphorothioate, Rp-isomer, reference compound], the degraded in [5] amounted to 22%.

As to `Nc1ncnc2c1nc(Br)n2C1OC2COP(O)(=S)OC2C1O` (centres unmarked) [Sp-8-Br-cAMPS, Sp-8-bromoadenosine-3′,5′-cyclic phosphorothioate, reference compound], the negative-log EC50 (pEC50) in [8] is 6.15. The molecule further had a half-life with PDE 1 of around 50 h.
